Like-named read-outs stand apart in the source and are kept apart here.
Legend:
hD3R [1] = biological target: T1, hD3R (Homo sapiens, UniProt P35462); assay: Radioligand binding, agonist [3H]-
hD2LR [2] = biological target: T2, hD2LR (Homo sapiens, UniProt P14416); assay: Radioligand binding, agonist [3H]-; settings: for (D3R/D2R) Ki ratio, [3H]-(R)-(+)-7-OH-DPAT: selectivity for D2R, value printed in parentheses
hD2LR [3] = biological target: T2, hD2LR
hD3R [4] = biological target: T1, hD3R

T2 sequence (P14416 whole entry): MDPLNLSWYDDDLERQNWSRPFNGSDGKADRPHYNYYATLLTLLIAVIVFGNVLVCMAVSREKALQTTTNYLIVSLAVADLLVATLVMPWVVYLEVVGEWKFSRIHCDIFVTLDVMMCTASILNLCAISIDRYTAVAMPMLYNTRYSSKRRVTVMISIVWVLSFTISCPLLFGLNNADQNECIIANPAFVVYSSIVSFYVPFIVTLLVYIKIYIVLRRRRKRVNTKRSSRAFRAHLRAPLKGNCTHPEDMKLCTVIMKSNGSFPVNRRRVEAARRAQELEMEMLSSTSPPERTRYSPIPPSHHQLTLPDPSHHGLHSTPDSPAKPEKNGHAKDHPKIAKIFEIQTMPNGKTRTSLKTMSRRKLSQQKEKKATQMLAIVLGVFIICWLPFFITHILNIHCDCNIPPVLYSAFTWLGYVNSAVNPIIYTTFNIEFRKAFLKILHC
T1 sequence (P35462 whole entry): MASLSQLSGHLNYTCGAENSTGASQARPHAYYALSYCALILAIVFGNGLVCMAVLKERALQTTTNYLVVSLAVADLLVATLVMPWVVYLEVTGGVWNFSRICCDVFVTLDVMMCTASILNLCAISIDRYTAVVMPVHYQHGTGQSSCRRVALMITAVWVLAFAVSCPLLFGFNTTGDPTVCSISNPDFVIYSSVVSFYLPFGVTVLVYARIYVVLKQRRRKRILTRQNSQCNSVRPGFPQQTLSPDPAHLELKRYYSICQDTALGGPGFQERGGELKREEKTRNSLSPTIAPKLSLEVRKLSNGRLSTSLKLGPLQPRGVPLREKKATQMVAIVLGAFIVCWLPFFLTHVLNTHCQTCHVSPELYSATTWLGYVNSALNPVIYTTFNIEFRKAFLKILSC

| Structure (SMILES) | Ki (hD3R [1]) [nM] | Ki (hD2LR [2]) [nM] | Ki (hD2LR [3]) [nM] | Ki (hD3R [4]) [nM] | (D3R/D2R) Ki ratio, [3H]-(R)-(+)-7-OH-DPAT (hD2LR [2]) |
| --- | --- | --- | --- | --- | --- |
| C[C@H]1CO[C@@H](c2ccc(N)nc2)CN1CC=C1CCC(CNC(=O)c2cc3ccccc3[nH]2)C1 (mixture of isomers) [Compound 15, N-((3-(2-((2S,5S)-2-(6-Aminopyridin-3-yl)-5-methylmorpholino)ethylidene)cyclopentyl)methyl)-1H-indole-2-carboxamide] | 7.41 ± 0.323 | 55.9 ± 4.78 | 7920 ± 772 | 104 ± 7.65 | – |
| CN(CC[C@@H]1CC[C@H](CNC(=O)c2cc3ccccc3[nH]2)C1)[C@@H]1Cc2cccc3[nH]c(=O)n(c23)C1 (relative stereo) [rel-cis-16a, N-((3-(2-(Methyl((R)-2-oxo-1,2,5,6-tetrahydro-4H-imidazo[4,5,1-ij]quinolin-5-yl)amino)ethyl)cyclopentyl)methyl)-1H-indole-2-carboxamide] | – | – | – | – | (9.6) |
| CN(CC[C@@H]1CC[C@@H](CNC(=O)c2cc3ccccc3[nH]2)C1)[C@@H]1Cc2cccc3[nH]c(=O)n(c23)C1 (relative stereo) [rel-trans-16b, N-((3-(2-(Methyl((R)-2-oxo-1,2,5,6-tetrahydro-4H-imidazo[4,5,1-ij]quinolin-5-yl)amino)ethyl)cyclopentyl)methyl)-1H-indole-2-carboxamide] | – | – | – | – | (17) |

Source: PMC11091832 (Journal of medicinal chemistry, 2021)
